Values joined by “and” are separate entries in the source; they are usually repeats but may differ in a detail not shown here. Identical values can stand only once. Bridge positions count the residues as written; N and C are the ends. Ends that are not written are not given here. Peptide text beside a SMILES is read from it.
Legend:
[1] = target: T1, NPR-B (Homo sapiens, UniProt P20594); assay: Membrane guanylyl cyclase (cGMP) assay, NPR-B; format: biochemical
T1 sequence (P20594 23-1047): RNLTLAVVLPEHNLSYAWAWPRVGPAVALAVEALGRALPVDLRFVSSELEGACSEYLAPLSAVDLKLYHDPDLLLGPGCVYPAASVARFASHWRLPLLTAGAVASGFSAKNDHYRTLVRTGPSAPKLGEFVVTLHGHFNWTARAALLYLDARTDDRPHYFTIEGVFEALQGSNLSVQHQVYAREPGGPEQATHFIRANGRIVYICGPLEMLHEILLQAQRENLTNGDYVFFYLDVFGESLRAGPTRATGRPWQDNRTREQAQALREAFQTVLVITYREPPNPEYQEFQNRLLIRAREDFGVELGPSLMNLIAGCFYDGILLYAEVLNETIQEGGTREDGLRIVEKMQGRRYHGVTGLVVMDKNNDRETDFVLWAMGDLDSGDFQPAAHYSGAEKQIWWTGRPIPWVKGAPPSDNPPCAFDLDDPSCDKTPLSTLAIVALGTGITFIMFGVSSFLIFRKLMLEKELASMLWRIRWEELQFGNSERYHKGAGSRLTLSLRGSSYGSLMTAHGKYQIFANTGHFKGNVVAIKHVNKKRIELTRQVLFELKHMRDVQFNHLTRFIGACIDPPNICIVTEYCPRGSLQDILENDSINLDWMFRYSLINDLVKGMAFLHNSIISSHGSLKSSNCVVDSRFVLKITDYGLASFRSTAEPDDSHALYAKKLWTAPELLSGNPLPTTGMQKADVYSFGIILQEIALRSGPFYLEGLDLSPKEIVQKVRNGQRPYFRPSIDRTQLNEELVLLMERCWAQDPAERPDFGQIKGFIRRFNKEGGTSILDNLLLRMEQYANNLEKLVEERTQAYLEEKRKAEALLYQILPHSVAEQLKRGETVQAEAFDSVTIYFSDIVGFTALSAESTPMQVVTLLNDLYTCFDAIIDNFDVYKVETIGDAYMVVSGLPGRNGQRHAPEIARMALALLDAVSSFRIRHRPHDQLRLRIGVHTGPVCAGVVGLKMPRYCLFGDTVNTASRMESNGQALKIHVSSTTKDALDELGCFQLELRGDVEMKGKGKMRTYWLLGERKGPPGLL

[2] = target: NPR-A (Homo sapiens, UniProt P16066); format: biochemical
[3] = target: T2, neutral endopeptidase (NEP) (Homo sapiens, UniProt P08473)
[4] = target: T2, neutral endopeptidase (NEP); assay: in vitro; conditions: isolated enzyme neprilysin, pH 7.5
[5] = target: T1, NPR-B; assay: Whole cell guanylyl cyclase (cGMP) assay, NPR-B; format: cell-based; design: expressed in transfected cells; conditions: for Emax: read-out: % Efficacy
Protocol: HEK293S cells in a semi-confluent 75 cm2 flask are transfected with 30 μg of plasmid DNA coding for the appropriate receptor, e.g., human NPR-B or NPR-A, using Lipofectamine-2000CD. Alternatively, a stable polyclonal HEK293 S cell line expressing either human NPR-B or NPR-A was used. 24 hours after transfection, cells are trypsinized and plated into 48-well plates at 1×10^5 cells/well. Guanylyl cyclase assay is carried out 24 hours post-plating. Cells are first incubated for 30 minutes at 37° C. with serum-free DMEM medium. Then, they are incubated in triplicate with or without increasing concentrations of reference or test proteins in serum-free DMEM supplemented with 1 mM IBMX and 0.5% BSA, at 37° C. for 30 minutes to one hour. CNP serves as a suitable reference for NPR-B, while ANP is a suitable reference for NPR-A. Finally, cells are washed with ice-cold PBS and solubilized in lysis buffer from Catchpoint cGMP kit (Molecular devices). Concentrations of cGMP in lysate are determined using the Catchpoint cGMP kit. Dose-response curves are analysed with GraphPad Prism 5 software using non-linear regression with four-parameter logistic equation.

T2 sequence (P08473 whole entry): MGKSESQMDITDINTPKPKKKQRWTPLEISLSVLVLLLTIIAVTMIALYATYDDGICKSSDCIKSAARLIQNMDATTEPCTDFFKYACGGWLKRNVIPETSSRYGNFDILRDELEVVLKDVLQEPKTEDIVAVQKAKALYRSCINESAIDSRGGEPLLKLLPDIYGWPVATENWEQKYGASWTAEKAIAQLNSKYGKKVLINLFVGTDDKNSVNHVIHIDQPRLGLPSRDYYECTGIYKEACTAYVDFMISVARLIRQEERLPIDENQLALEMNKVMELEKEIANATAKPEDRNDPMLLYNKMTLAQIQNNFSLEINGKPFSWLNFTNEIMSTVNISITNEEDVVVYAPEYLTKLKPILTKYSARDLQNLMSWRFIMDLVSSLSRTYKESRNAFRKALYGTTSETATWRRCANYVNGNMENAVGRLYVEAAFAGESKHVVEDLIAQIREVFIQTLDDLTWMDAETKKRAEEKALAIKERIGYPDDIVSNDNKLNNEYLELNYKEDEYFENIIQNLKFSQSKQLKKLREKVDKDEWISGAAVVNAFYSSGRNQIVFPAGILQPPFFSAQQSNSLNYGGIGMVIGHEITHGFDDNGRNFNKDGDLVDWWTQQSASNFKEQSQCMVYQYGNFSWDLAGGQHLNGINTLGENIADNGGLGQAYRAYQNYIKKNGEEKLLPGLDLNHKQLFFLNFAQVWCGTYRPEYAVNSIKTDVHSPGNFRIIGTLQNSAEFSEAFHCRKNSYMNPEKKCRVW
Chain of NPR-A (P16066 33-1061): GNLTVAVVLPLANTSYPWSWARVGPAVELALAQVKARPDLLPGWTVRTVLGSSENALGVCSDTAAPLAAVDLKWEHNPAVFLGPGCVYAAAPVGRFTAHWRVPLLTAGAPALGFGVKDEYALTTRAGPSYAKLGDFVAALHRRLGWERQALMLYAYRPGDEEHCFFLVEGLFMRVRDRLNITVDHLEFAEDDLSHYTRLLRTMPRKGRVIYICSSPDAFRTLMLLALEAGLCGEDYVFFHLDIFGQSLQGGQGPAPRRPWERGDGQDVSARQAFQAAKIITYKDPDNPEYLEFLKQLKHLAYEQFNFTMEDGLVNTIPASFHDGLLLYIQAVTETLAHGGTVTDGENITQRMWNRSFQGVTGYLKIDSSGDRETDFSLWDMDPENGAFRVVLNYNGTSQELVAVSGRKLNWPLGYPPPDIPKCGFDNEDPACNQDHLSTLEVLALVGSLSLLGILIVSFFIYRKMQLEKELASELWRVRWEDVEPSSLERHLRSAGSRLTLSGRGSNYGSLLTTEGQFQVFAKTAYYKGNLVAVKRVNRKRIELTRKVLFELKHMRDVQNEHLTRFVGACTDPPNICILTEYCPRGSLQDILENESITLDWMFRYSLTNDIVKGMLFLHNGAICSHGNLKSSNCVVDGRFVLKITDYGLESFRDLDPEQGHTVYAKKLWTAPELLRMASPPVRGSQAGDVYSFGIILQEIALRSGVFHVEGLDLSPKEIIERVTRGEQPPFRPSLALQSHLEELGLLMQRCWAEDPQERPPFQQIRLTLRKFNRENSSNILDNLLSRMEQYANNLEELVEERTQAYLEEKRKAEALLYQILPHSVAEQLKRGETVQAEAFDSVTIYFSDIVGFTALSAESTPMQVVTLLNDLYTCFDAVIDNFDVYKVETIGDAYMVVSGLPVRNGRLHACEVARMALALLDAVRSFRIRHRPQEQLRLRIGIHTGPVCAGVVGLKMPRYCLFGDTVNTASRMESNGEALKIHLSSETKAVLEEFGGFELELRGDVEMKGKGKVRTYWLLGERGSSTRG

| Molecule | Approximate fold gain in selectivity versus CDNP [1] | Approximate fold selectivity NPR-B versus NPR-A [1] [fold] | NPR-B selective efficacy gain [1] [%] | % efficacy versus CDNP on NPR-A [2] | % loss in efficacy versus CDNP [2] [%] | sensitivity to NEP degradation [3] | % efficacy versus CDNP on NPR-B [1] [%] | Resist NEP degradation (No/Yes) [3] | remaining at 4 h [4] [%] | EC50 Ratio versus CNP22 [5] | Rescue Ratio Average [5] | Rescue Ratio versus CNP22 [5] | Rescue range [5] [nM] | EC50 [5] [µM] | Emax [5] [%] | % of control after 240 min [3] [%] |
| --- | --- | --- | --- | --- | --- | --- | --- | --- | --- | --- | --- | --- | --- | --- | --- | --- |
| CC[C@H](C)[C@@H]1NC(=O)[C@H](CCCNC(=N)N)NC(=O)[C@H](CC(=O)O)NC(=O)[C@H](CC(C)C)NC(=O)[C@H](CCCCN)NC(=O)[C@H](CC(C)C)NC(=O)CNC(=O)[C@H](Cc2ccccc2)NC(=O)[C@@H](NC(=O)CNC(=O)[C@H](CCCCN)NC(=O)[C@H](CO)NC(=O)[C@H](CC(C)C)NC(=O)CN)CSSC[C@@H](C(=O)N2CCC[C@H]2C(=O)N[C@@H](CO)C(=O)N[C@@H](CO)C(=O)N[C@@H](C)C(=O)N[C@@H](C)C(=O)N2CCC[C@H]2C(=O)N[C@@H](CCCNC(=N)N)C(=O)N2CCC[C@H]2C(=O)N[C@@H](CC(N)=O)C(=O)N[C@@H](C)C(=O)N2CCC[C@H]2C(=O)N[C@@H](CO)C(=O)N[C@H](C(=O)N[C@@H](CO)C(=O)N[C@@H](C)C(=O)O)[C@@H](C)O)NC(=O)CNC(=O)[C@H](CC(C)C)NC(=O)CNC(=O)[C@H](CO)NC(=O)[C@H](CCSC)NC(=O)[C@H](CO)NC(=O)CNC1=O [CDNP-SAA] (HELM PEPTIDE1{G.L.S.K.G.C.F.G.L.K.L.D.R.I.G.S.M.S.G.L.G.C.P.S.S.A.A.P.R.P.N.A.P.S.T.S.A}$PEPTIDE1,PEPTIDE1,6:R3-22:R3$$$V2.0) | 15 fold and 14.9 fold | 43.5 | 69 | 34-69% | 69 | slightly more sensitive to NEP than CDNP | – | – | – | – | – | – | – | – | – | – |
| CC[C@H](C)[C@@H]1NC(=O)[C@H](CCCNC(=N)N)NC(=O)[C@H](CC(=O)O)NC(=O)[C@H](CC(C)C)NC(=O)[C@H](CCCCN)NC(=O)[C@H](CC(C)C)NC(=O)CNC(=O)[C@H](Cc2ccccc2)NC(=O)[C@@H](NC(=O)CNC(=O)[C@H](CCCCN)NC(=O)[C@H](CO)NC(=O)[C@H](CC(C)C)NC(=O)CN)CSSC[C@@H](C(=O)N2CCC[C@H]2C(=O)N[C@@H](CO)C(=O)N[C@@H](CO)C(=O)N[C@@H](C)C(=O)N[C@@H](CC(=O)O)C(=O)N2CCC[C@H]2C(=O)N[C@@H](CCCNC(=N)N)C(=O)N2CCC[C@H]2C(=O)N[C@@H](CC(N)=O)C(=O)N[C@@H](C)C(=O)N2CCC[C@H]2C(=O)N[C@@H](CO)C(=O)N[C@H](C(=O)N[C@@H](CO)C(=O)N[C@@H](C)C(=O)O)[C@@H](C)O)NC(=O)CNC(=O)[C@H](CC(C)C)NC(=O)CNC(=O)[C@H](CO)NC(=O)[C@H](CCSC)NC(=O)[C@H](CO)NC(=O)CNC1=O [CDNP-SAD] (HELM PEPTIDE1{G.L.S.K.G.C.F.G.L.K.L.D.R.I.G.S.M.S.G.L.G.C.P.S.S.A.D.P.R.P.N.A.P.S.T.S.A}$PEPTIDE1,PEPTIDE1,6:R3-22:R3$$$V2.0) | 28 fold and 28.5 fold | 83.2 | 27 | – | 27 | comparable NEP sensitivity | – | – | – | – | – | – | – | – | – | – |
| CC[C@H](C)[C@@H]1NC(=O)[C@H](CCCNC(=N)N)NC(=O)[C@H](CC(=O)O)NC(=O)[C@H](CC(C)C)NC(=O)[C@H](CCCCN)NC(=O)[C@H](CC(C)C)NC(=O)CNC(=O)[C@H](Cc2ccccc2)NC(=O)[C@@H](NC(=O)CNC(=O)[C@H](CCCCN)NC(=O)[C@H](CO)NC(=O)[C@H](CC(C)C)NC(=O)CN)CSSC[C@@H](C(=O)N2CCC[C@H]2C(=O)N[C@@H](CO)C(=O)N[C@@H](CO)C(=O)N[C@@H](CCCNC(=N)N)C(=O)N[C@@H](C)C(=O)N2CCC[C@H]2C(=O)N[C@@H](CCCNC(=N)N)C(=O)N2CCC[C@H]2C(=O)N[C@@H](CC(N)=O)C(=O)N[C@@H](C)C(=O)N2CCC[C@H]2C(=O)N[C@@H](CO)C(=O)N[C@H](C(=O)N[C@@H](CO)C(=O)N[C@@H](C)C(=O)O)[C@@H](C)O)NC(=O)CNC(=O)[C@H](CC(C)C)NC(=O)CNC(=O)[C@H](CO)NC(=O)[C@H](CCSC)NC(=O)[C@H](CO)NC(=O)CNC1=O [CDNP-SRA] (HELM PEPTIDE1{G.L.S.K.G.C.F.G.L.K.L.D.R.I.G.S.M.S.G.L.G.C.P.S.S.R.A.P.R.P.N.A.P.S.T.S.A}$PEPTIDE1,PEPTIDE1,6:R3-22:R3$$$V2.0) | 1.2 fold and 1.23 fold | 3.59 | 82 | 36% | 82 | comparable NEP sensitivity | 118 | – | – | – | – | – | – | – | – | – |
| EEEEEESGGGGSGGGQGANKKGLSKGCFGLKLDRIGSMSGLGC (disulfide 27-43) [C8(E6) [BC8]] | – | – | – | – | – | – | – | Yes | 103 | 48.9 | 52 | 48-56 | 116 to 779 | 0.719 | 97 | – |
| EEEEEESGGGGSGGGQGANKQGLSKGCFGLKLDRIGSMSGLGC (disulfide 27-43) [C11(E6) [BC11]] | – | – | – | – | – | – | – | Yes | 102 | 60.4 | 120 | – | 289 to 1662 | 0.888 | 95 | – |
| EEEEEESGGGGSGGGQGANQKGLSKGCFGLKLDRIGSMSGLGC (disulfide 27-43) [C10(E6) [BC10]] | – | – | – | – | – | – | – | Yes | 102 | 168 | 90 | 89-90 | 213 to 1253 | 2.47 | 156 | – |
| EEEEEESGGGGSGGGQGANQQGLSKGCFGLKLDRIGSMSGLGC (disulfide 27-43) [C5(E6) [BC5]] | – | – | – | – | – | – | – | Yes | 100 | 161 | 138 | – | 334 to 1899 | 2.36 | 96 | – |
| GLSKGCFGLKLDRIGSMSGLGCGGGGSGGGGSGGGGDDDDDD (disulfide 6-22) [CNP-14AAlinker-D6 [C4]] | – | – | – | – | – | – | – | Yes | 75 | 146 | 545 | 375-714 | 900 to 10000 | 2.14 | 156 | 75 |

Reference: US9266939B2, “Compositions comprising natriuretic peptides and methods of use thereof” (Alexion Pharmaceuticals, Inc., priority 2010, dated 2016)
